Test results: patent US10414811B2, “Protease-resistant lipidated GLP-1 analogs” (MEDIMMUNE LIMITED, priority 2015, dated 2019)
Like-named read-outs stand apart in the source and are kept apart here. Numbered stars: 1 amine (or outer) side, 2 acyl side, 3 side chain; on linkers, the order of the positions; unused ones are H or OH. Square brackets hold non-standard residues; d marks the D form. Side chains are listed from the residue outwards. Peptide text beside a SMILES is read from it. * marks the point of attachment. γGlu = O=C(O)[C@H](CCC(=O)[*:2])N[*:1]; Palmitoyl = CCCCCCCCCCCCCCCC(=O)*; αMeF = C[C@](N)(Cc1ccccc1)C(=O)O; αMeK = C[C@](N)(CCCCN)C(=O)O; Aib = CC(C)(N)C(=O)O

Columns and labels:
Type in all cases: cell-based
[1] = target: T1, human GLP-1 receptor (GLP-1R) (Homo sapiens, UniProt P43220); assay: cAMP assay, human GLP-1R cells
T1 construct: expressed in transfected cells
T1 sequence (P43220 24-463): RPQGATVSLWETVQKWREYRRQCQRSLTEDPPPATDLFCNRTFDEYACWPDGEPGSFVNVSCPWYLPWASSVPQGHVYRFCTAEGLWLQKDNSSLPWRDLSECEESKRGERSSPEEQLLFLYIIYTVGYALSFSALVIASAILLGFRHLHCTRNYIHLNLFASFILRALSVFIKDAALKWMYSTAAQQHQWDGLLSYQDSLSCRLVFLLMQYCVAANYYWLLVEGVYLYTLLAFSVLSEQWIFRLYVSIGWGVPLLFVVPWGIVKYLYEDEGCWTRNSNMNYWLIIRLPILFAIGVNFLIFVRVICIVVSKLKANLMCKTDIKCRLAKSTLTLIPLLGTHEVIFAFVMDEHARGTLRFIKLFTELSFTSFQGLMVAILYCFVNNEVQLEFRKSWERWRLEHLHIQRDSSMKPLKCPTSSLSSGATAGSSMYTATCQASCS
Method: Sample dilutions are made in duplicate.
A frozen cryo-vial of cells expressing the receptor of interest is thawed rapidly in a water-bath, transferred to pre-warmed assay buffer and spun at 240×g for 5 minutes. Cells are re-suspended in assay buffer at a batch-dependent optimized concentration (e.g. hGCGR cells at 2×10^5 cells/ml, hGLP-1R and hGIPR cells at 1×10^5 cells/ml).
To this, 5 μL cell suspension is added and the plates incubated at room temperature for 30 minutes.
cAMP levels are measured using a commercially available cAMP dynamic 2 HTRF kit (Cisbio, Cat #62AM4PEJ), following the two step protocol as per manufacturer's recommendations. In brief; anti-cAMP cryptate (donor fluorophore) and cAMP-d2 (acceptor fluorophore) are made up separately by diluting each 1/20 in conjugate & lysis buffer provided in the kit. 5 μL anti-cAMP cryptate is added to wells of the assay plate, and 5 μL cAMP-d2 is added to wells except non-specific binding (NSB) wells, to which conjugate and lysis buffer are added. […] EC50 values of the synthetic peptides determined in cAMP assays are then determined.
Data is transformed to % Delta F as described in the manufacturer's guidelines and analyzed by 4-parameter logistic fit to determine EC50 values. […] To compare the balance of activities at the GLP-1R and GCGR between different peptides and across different conditions, these can be correlated, where the EC50's are related to those of comparator peptides.

[2] = target: T2, human glucagon receptor (GCGR) (Homo sapiens, UniProt P47871); assay: cAMP assay, human GCGR cells; conditions: cAMP assay
T2 construct: expressed in transfected cells
T2 sequence (P47871 26-477): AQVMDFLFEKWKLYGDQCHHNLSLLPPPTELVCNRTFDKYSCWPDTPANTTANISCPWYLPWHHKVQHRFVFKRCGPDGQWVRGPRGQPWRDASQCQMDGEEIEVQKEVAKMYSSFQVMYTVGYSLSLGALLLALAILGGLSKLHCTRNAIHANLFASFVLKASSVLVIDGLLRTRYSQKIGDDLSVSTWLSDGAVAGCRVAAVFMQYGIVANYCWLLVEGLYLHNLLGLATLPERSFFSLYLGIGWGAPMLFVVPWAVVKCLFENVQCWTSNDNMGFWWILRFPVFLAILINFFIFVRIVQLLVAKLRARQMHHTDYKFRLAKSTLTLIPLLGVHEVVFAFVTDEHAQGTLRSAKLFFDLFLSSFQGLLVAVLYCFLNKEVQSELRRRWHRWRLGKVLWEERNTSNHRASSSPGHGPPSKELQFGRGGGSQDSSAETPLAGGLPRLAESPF
How it was run: (§1)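 Peptide-stimulated cAMP measured by two-step HTRF after a 30 min room-temperature incubation with receptor-expressing cells (hGLP-1R, hGIPR at 1×10^5 cells/ml; hGCGR at 2×10^5 cells/ml). Duplicate dilutions; EC50 from 4-parameter logistic fit of % Delta F.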

[3] = target: T3, human glucose-dependent insulinotropic peptide receptor (GIPR) (Homo sapiens, UniProt P48546); assay: cAMP assay, human GIPR cells; conditions: cAMP assay
T3 construct: expressed in transfected cells
T3 sequence (P48546 22-466): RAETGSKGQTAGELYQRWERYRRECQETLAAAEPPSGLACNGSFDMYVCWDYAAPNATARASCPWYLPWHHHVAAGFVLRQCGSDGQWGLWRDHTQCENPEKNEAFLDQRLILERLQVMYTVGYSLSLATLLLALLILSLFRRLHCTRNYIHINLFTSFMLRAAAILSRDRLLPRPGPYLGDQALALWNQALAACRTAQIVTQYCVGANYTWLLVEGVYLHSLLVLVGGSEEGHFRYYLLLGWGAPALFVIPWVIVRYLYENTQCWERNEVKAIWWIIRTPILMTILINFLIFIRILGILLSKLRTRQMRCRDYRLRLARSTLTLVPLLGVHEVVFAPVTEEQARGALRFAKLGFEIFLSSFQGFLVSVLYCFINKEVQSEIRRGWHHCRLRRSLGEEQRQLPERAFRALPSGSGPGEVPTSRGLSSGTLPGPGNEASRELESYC
How it was run: as §1

[4] = cAMP assay, first determination (n1), read-out: Primary assay EC50 GLP-1R n1
[5] = cAMP assay, second determination (n2), read-out: Primary assay EC50 GLP-1R n2
[6] = mean of n1 and n2, read-out: Mean pM GLP-1R
[7] = first determination (n1), read-out: Primary assay EC50 Gluc-R (n1)
[8] = second determination (n2), read-out: Primary assay EC50 Gluc-R (n2)
[9] = first determination (n1), read-out: Primary assay EC50 GIP-R (n1)
[10] = second determination (n2), read-out: Primary assay EC50 GIP-R (n2)

## CCCCCCCCCCCCCCCC(=O)N[C@@H](CCC(=O)NCCCC[C@H](NC(=O)[C@H](CCCNC(=N)N)NC(=O)CNC(=O)[C@H](CCCCN)NC(=O)[C@@H](NC(=O)[C@H](CC(C)C)NC(=O)[C@H](Cc1c[nH]c2ccccc12)NC(=O)[C@H](C)NC(=O)[C@@H](NC(=O)[C@H](Cc1ccccc1)NC(=O)[C@H](CCC(=O)O)NC(=O)[C@H](CCCCN)NC(=O)[C@H](C)NC(=O)[C@H](C)NC(=O)[C@H](CCC(N)=O)NC(=O)CNC(=O)[C@H](CCC(=O)O)NC(=O)[C@H](CC(C)C)NC(=O)[C@H](Cc1ccc(O)cc1)NC(=O)[C@H](CO)NC(=O)[C@H](CO)NC(=O)[C@@H](NC(=O)[C@H](CC(=O)O)NC(=O)[C@H](CO)NC(=O)[C@@H](NC(=O)[C@H](Cc1ccccc1)NC(=O)[C@@H](NC(=O)CNC(=O)[C@H](CCC(=O)O)NC(=O)C(C)(C)NC(=O)[C@@H](N)Cc1c[nH]cn1)[C@@H](C)O)[C@@H](C)O)C(C)C)[C@@H](C)CC)C(C)C)C(N)=O)C(=O)O [compound 5]
[1]; [4]
  EC50: 7.5 pM
[1]; [5]
  EC50: 5.5 pM
[1]; [6]
  EC50: 6.5 pM
[2]; [7]
  EC50: ≥ 81 nM
[2]; [8]
  EC50: ≥ 81 nM
[3]; [9]
  EC50: ≥ 81 nM
[3]; [10]
  EC50: ≥ 81 nM

## CC[C@H](C)[C@H](NC(=O)[C@](C)(Cc1ccccc1)NC(=O)[C@H](CCC(=O)O)NC(=O)[C@](C)(CCCCN)NC(=O)[C@H](C)NC(=O)[C@H](C)NC(=O)[C@H](CCC(=O)O)NC(=O)CNC(=O)[C@H](CCC(=O)O)NC(=O)[C@H](CC(C)C)NC(=O)[C@](C)(Cc1ccccc1)NC(=O)[C@H](CO)NC(=O)[C@H](CO)NC(=O)[C@@H](NC(=O)[C@H](CCC(=O)O)NC(=O)[C@H](CO)NC(=O)[C@@H](NC(=O)[C@](C)(Cc1ccccc1)NC(=O)[C@H](CO)NC(=O)CNC(=O)[C@H](CCC(=O)O)NC(=O)C(C)(C)NC(=O)[C@@H](N)Cc1c[nH]cn1)[C@@H](C)O)C(C)C)C(=O)N[C@@H](C)C(=O)N[C@@](C)(Cc1ccccc1)C(=O)N[C@H](C(=O)N[C@H](C(=O)N[C@@](C)(CCCCN)C(=O)NCC(=O)NCC(N)=O)C(C)C)C(C)C [compound 7] (H-H[Aib]EGS[αMeF]TSEVSS[αMeF]LEGEAA[αMeK]E[αMeF]IA[αMeF]VV[αMeK]GG-NH2)
[1]; [4]
  EC50: 350 pM
[1]; [5]
  EC50: 430 pM
[1]; [6]
  EC50: 389 pM
[2]; [7]
  EC50: ≥ 100 nM
[2]; [8]
  EC50: ≥ 100 nM
[3]; [9]
  EC50: ≥ 100 nM
[3]; [10]
  EC50: ≥ 100 nM

## CC[C@H](C)[C@H](NC(=O)[C@](C)(Cc1ccccc1)NC(=O)[C@H](CCC(=O)O)NC(=O)[C@](C)(CCCCN)NC(=O)[C@H](C)NC(=O)[C@H](C)NC(=O)[C@H](CCC(=O)O)NC(=O)CNC(=O)[C@H](CCC(=O)O)NC(=O)[C@H](CC(C)C)NC(=O)[C@](C)(Cc1ccccc1)NC(=O)[C@H](CO)NC(=O)[C@H](CO)NC(=O)[C@@H](NC(=O)[C@H](CC(=O)O)NC(=O)[C@H](CO)NC(=O)[C@H](CO)NC(=O)[C@](C)(Cc1ccccc1)NC(=O)[C@H](CO)NC(=O)CNC(=O)[C@H](CCC(=O)O)NC(=O)C(C)(C)NC(=O)[C@@H](N)Cc1c[nH]cn1)C(C)C)C(=O)N[C@@H](C)C(=O)N[C@@](C)(Cc1ccccc1)C(=O)N[C@H](C(=O)N[C@H](C(=O)N[C@@](C)(CCCCN)C(=O)NCC(=O)NCC(N)=O)C(C)C)C(C)C [compound 8] (H-H[Aib]EGS[αMeF]SSDVSS[αMeF]LEGEAA[αMeK]E[αMeF]IA[αMeF]VV[αMeK]GG-NH2; N-terminus assumed)
[1]; [4]
  EC50: 71 pM
[1]; [5]
  EC50: 110 pM
[1]; [6]
  EC50: 88 pM
[2]; [7]
  EC50: 7.8 nM
[2]; [8]
  EC50: 12 nM
[3]; [9]
  EC50: 23 nM
[3]; [10]
  EC50: 23 nM

## CC(C)C[C@H](NC(=O)[C@](C)(Cc1ccccc1)NC(=O)[C@H](CO)NC(=O)[C@H](CO)NC(=O)[C@@H](NC(=O)[C@H](CC(=O)O)NC(=O)[C@H](CO)NC(=O)[C@@H](NC(=O)[C@](C)(Cc1ccccc1)NC(=O)[C@H](CO)NC(=O)CNC(=O)[C@H](CCC(=O)O)NC(=O)C(C)(C)NC(=O)[C@@H](N)Cc1c[nH]cn1)[C@@H](C)O)C(C)C)C(=O)N[C@@H](CCC(=O)O)C(=O)NCC(=O)N[C@@H](CCC(=O)O)C(=O)N[C@@H](C)C(=O)N[C@@H](C)C(=O)N[C@@](C)(CCCCN)C(=O)N[C@@H](CCC(=O)O)C(=O)N[C@@](C)(Cc1ccccc1)C(=O)N[C@H](C(=O)N[C@@H](C)C(=O)N[C@@](C)(Cc1ccccc1)C(=O)N[C@H](C(=O)N[C@H](C(=O)N[C@@](C)(CCCCN)C(=O)NCC(=O)NCC(N)=O)C(C)C)C(C)C)C(C)C [compound 11] (H-H[Aib]EGS[αMeF]TSDVSS[αMeF]LEGEAA[αMeK]E[αMeF]VA[αMeF]VV[αMeK]GG-NH2)
[1]; [4]
  EC50: 32 pM
[1]; [5]
  EC50: 32 pM
[1]; [6]
  EC50: 32 pM
[2]; [7]
  EC50: ≥ 100 nM
[2]; [8]
  EC50: ≥ 100 nM
[3]; [9]
  EC50: ≥ 100 nM
[3]; [10]
  EC50: ≥ 100 nM

## CCCCCCCCCCCCCCCC(=O)N[C@@H](CCC(=O)NCCCC[C@H](NC(=O)[C@H](CC(=O)O)NC(=O)[C@H](CO)NC(=O)[C@@H](NC(=O)[C@](C)(Cc1ccccc1)NC(=O)[C@H](CO)NC(=O)CNC(=O)[C@H](CCC(N)=O)NC(=O)C(C)(C)NC(=O)[C@@H](N)Cc1c[nH]cn1)[C@@H](C)O)C(=O)N[C@@H](CO)C(=O)N[C@@H](CCC(=O)O)C(=O)N[C@@](C)(Cc1ccccc1)C(=O)N[C@@H](CC(C)C)C(=O)N[C@@H](CC(=O)O)C(=O)N[C@@H](CO)C(=O)N[C@@H](CCC(=O)O)C(=O)N[C@@H](CCCNC(=N)N)C(=O)N[C@@H](C)C(=O)N[C@@H](CCCNC(=N)N)C(=O)N[C@@H](CC(=O)O)C(=O)N[C@@](C)(Cc1ccccc1)C(=O)N[C@H](C(=O)N[C@@H](C)C(=O)N[C@@](C)(Cc1ccccc1)C(=O)N[C@@H](CC(C)C)C(=O)N[C@@H](CCC(=O)O)C(=O)N[C@@H](C)C(=O)NCC(=O)NCC(N)=O)C(C)C)C(=O)O [compound 13] (H-H[Aib]QGS[αMeF]TSDK([γGlu-Palmitoyl])SE[αMeF]LDSERARD[αMeF]VA[αMeF]LEAGG-NH2)
[1]; [4]
  EC50: 22 pM
[1]; [5]
  EC50: 9.6 pM
[1]; [6]
  EC50: 16 pM
[2]; [7]
  EC50: 7.6 nM
[2]; [8]
  EC50: 4.1 nM
[3]; [9]
  EC50: 0.69 nM
[3]; [10]
  EC50: 0.63 nM

## CSCC[C@H](NC(=O)[C@H](CC(C)C)NC(=O)[C@](C)(Cc1ccccc1)NC(=O)[C@H](CCC(N)=O)NC(=O)[C@@H](NC(=O)[C@](C)(Cc1ccccc1)NC(=O)[C@H](CC(=O)O)NC(=O)[C@H](CCC(N)=O)NC(=O)[C@H](C)NC(=O)[C@H](CCCNC(=N)N)NC(=O)[C@H](CCCNC(=N)N)NC(=O)[C@H](CO)NC(=O)[C@H](CC(=O)O)NC(=O)[C@H](CC(C)C)NC(=O)[C@](C)(Cc1ccccc1)NC(=O)[C@H](CCCCN)NC(=O)[C@H](CO)NC(=O)[C@](C)(Cc1ccccc1)NC(=O)[C@H](CC(=O)O)NC(=O)[C@H](CO)NC(=O)[C@@H](NC(=O)[C@](C)(Cc1ccccc1)NC(=O)[C@H](CO)NC(=O)CNC(=O)[C@H](CCC(N)=O)NC(=O)C(C)(C)NC(=O)[C@@H](N)Cc1c[nH]cn1)[C@@H](C)O)C(C)C)C(=O)N[C@@H](CC(N)=O)C(=O)N[C@H](C(N)=O)[C@@H](C)O [compound 14] (H-H[Aib]QGS[αMeF]TSD[αMeF]SK[αMeF]LDSRRAQD[αMeF]VQ[αMeF]LMNT-NH2)
[1]; [4]
  EC50: 3100 pM
[1]; [5]
  EC50: 1800 pM
[1]; [6]
  EC50: 2440 pM
[2]; [7]
  EC50: 3 nM
[2]; [8]
  EC50: 1.1 nM
[3]; [9]
  EC50: 15 nM
[3]; [10]
  EC50: 19 nM
